Data from patent publication US20250129069A1, “TRIAZOLO WRN INHIBITORS” (Nimbus Wadjet, Inc., priority 2023, published 2025).

What was measured:
[1] = target: human Werner helicase (WRN, amino acids 517-1235 with L1074F point mutation) (Homo sapiens (Human), UniProt Q14191, L1074F); test: WRN (BV08) ADP-Glo assay; type: biochemical; conditions: human WRN (aa 517-1235, L1074F), read-out: ADP-Glo_hWRN_IC50
In short: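 Untagged WRN 517-1235 (L1074F), Sf9/baculovirus-expressed, 0.15 nM, preincubated 15 min with compound, then 5 μM ATP and 0.1 nM annealed DNA duplex added; 60 min at 25 °C in Bicine pH 7.5, 1 mM MgCl2, 1% DMSO. ADP-Glo luminescence; % inhibition vs DMSO and 20 μM NSC-617145 controls, four-parameter IC50 fit.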

[2] = tested on: p21 induction in HCT 116 cells; test: p21 induction in cells (In-Cell Western, p21/GAPDH ratio); type: cell-based; conditions: Homo sapiens, 24 h compound incubation, read-out: p21_EC50
In short: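 HCT 116 cells treated 24 h at 37° C with 11-point, 2-fold dilutions typically from 10 μM, in duplicate. Fixed cells co-stained for p21 (800 nm) and GAPDH (700 nm) by In-Cell Western. p21/GAPDH ratio normalised between DMSO and reference WRN inhibitor controls, and EC50 obtained by nonlinear regression.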

human Werner helicase (WRN, amino acids 517-1235 with L1074F point mutation), sequence (Q14191 other isoform, or with tags, fused parts or gaps L1074F (already in the parent)): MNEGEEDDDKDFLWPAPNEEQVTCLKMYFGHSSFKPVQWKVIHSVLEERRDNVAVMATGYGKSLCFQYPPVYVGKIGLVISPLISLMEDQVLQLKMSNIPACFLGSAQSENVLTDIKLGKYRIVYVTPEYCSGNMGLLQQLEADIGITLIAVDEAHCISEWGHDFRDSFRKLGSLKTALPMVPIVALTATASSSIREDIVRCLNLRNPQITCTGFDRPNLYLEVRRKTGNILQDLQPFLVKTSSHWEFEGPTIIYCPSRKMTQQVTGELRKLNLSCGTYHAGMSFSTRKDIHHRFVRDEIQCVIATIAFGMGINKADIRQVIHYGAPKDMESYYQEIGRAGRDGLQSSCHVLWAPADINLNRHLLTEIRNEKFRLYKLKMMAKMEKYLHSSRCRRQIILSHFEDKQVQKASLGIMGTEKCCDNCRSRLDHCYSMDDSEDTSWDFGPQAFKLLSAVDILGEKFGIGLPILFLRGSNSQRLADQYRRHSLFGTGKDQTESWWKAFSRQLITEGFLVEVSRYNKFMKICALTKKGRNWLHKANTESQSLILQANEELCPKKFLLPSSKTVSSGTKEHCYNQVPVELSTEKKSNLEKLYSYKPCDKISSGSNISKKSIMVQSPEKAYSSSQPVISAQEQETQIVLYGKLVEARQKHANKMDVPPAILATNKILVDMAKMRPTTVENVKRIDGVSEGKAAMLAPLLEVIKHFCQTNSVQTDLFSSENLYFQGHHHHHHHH

SMILES	IC50 [1]	EC50 [2]
CCc1c(N2CCN(C(=O)c3[nH]ncc3OC)[C@H]3CC[C@@H]32)c(=O)c2nn(C3=CCOCC3)nc2n1CC(=O)NC12CC(C(C)C)(C1)C2 [Compound I-166, 2-[2-(3,6-dihydro-2H-pyran-4-yl)-5-ethyl-6-[(1S,6S)-5-(4-methoxy-1H-pyrazole-5-carbonyl)-2,5-diazabicyclo[4.2.0]octan-2-yl]-7-oxo-2H,4H,7H-[1,2,3]triazolo[4,5-b]pyridin-4-yl]-N-[3-(propan-2-yl)bicyclo[1.1.1]pentan-1-yl]acetamide]	0.005 to 0.05 µM	0.5 to 2 µM
CCc1c(N2CCN(C(=O)c3csnc3OC)[C@H]3CC[C@@H]32)c(=O)c2nn(C3=CCOCC3)nc2n1CC(=O)NC12CC(C(C)C)(C1)C2 [Compound I-175, 2-[2-(3,6-dihydro-2H-pyran-4-yl)-5-ethyl-6-[(1S,6S)-5-(3-methoxy-1,2-thiazole-4-carbonyl)-2,5-diazabicyclo[4.2.0]octan-2-yl]-7-oxo-2H,4H,7H-[1,2,3]triazolo[4,5-b]pyridin-4-yl]-N-[3-(propan-2-yl)bicyclo[1.1.1]pentan-1-yl]acetamide]	0.005 to 0.05 µM	≤ 0.5 µM
CCc1c(N2CCN(C(=O)c3ncnc(C)c3O)[C@H]3CC[C@@H]32)c(=O)c2nn([C@@H]3CC3(F)F)nc2n1CC(=O)Nc1ccc(C(F)(F)F)cc1Cl (single isomer, unassigned) [Compound I-215]	≤ 0.005 µM	≤ 0.5 µM
CCc1c(N2CCN(C(=O)c3ncnc(C)c3O)CC2)c(=O)c2nn(-c3ccnc(OC)c3)nc2n1CC(=O)Nc1ccc(C(F)(F)F)cc1Cl [Compound I-149, N-[2-chloro-4-(trifluoromethyl)phenyl]-2-{5-ethyl-6-[4-(5-hydroxy-6-methylpyrimidine-4-carbonyl)piperazin-1-yl]-2-(2-methoxypyridin-4-yl)-7-oxo-2H,4H,7H-[1,2,3]triazolo[4,5-b]pyridin-4-yl}acetamide]	≤ 0.005 µM	≤ 0.5 µM
CCc1c(N2CCN(C(=O)c3cc(N4CCC(C)(O)C4)cnc3OC)[C@H]3CC[C@@H]32)c(=O)c2nn(C3=CCOCC3)nc2n1CC(=O)NC12CC(C3CC3)(C1)C2 (stereo partly drawn) [Compound I-186, N-{3-cyclopropylbicyclo[1.1.1]pentan-1-yl}-2-[2-(3,6-dihydro-2H-pyran-4-yl)-5-ethyl-6-[(1S,6S)-5-[5-(3-hydroxy-3-methylpyrrolidin-1-yl)-2-methoxypyridine-3-carbonyl]-2,5-diazabicyclo[4.2.0]octan-2-yl]-7-oxo-2H,4H,7H-[1,2,3]triazolo[4,5-b]pyridin-4-yl]acetamide]	0.005 to 0.05 µM	0.5 to 2 µM
CCc1c(N2CCN(C(=O)c3ncnc(C)c3O)[C@H]3CC[C@@H]32)c(=O)c2nn(-c3ccnc(OC)c3)nc2n1CC(=O)NC1CC2(CC(F)C2)C1 (stereo partly drawn) [Compound I-47, 2-{5-ethyl-6-[(1S,6S)-5-(5-hydroxy-6-methylpyrimidine-4-carbonyl)-2,5-diazabicyclo[4.2.0]octan-2-yl]-2-(2-methoxypyridin-4-yl)-7-oxo-2H,4H,7H-[1,2,3]triazolo[4,5-b]pyridin-4-yl}-N-{6-fluorospiro[3.3]heptan-2-yl}acetamide]	0.005 to 0.05 µM	0.5 to 2 µM
CCc1c(N2CCN(C(=O)c3ncnc(C)c3O)[C@H]3CC[C@@H]32)c(=O)c2nn(C3=CCOCC3)nc2n1CC(=O)NC12CC(C3CC3)(C1)C2 [Compound I-26, N-(3-cyclopropylbicyclo[1.1.1]pentan-1-yl)-2-(2-(3,6-dihydro-2H-pyran-4-yl)-5-ethyl-6-((1S,6S)-5-(5-hydroxy-6-methylpyrimidine-4-carbonyl)-2,5-diazabicyclo[4.2.0]octan-2-yl)-7-oxo-2,7-dihydro-4H-[1,2,3]triazolo[4,5-b]pyridin-4-yl)acetamide]	0.005 to 0.05 µM	≤ 0.5 µM
CCc1c(N2CCN(C(=O)c3cnn(C)c3)[C@H]3CC[C@@H]32)c(=O)c2nn(C3=CCOCC3)nc2n1CC(=O)NC12CC(C(C)C)(C1)C2 [Compound I-206, 2-[2-(3,6-dihydro-2H-pyran-4-yl)-5-ethyl-6-[(1S,6S)-5-(1-methyl-1H-pyrazole-4-carbonyl)-2,5-diazabicyclo[4.2.0]octan-2-yl]-7-oxo-2H,4H,7H-[1,2,3]triazolo[4,5-b]pyridin-4-yl]-N-[3-(propan-2-yl)bicyclo[1.1.1]pentan-1-yl]acetamide]	0.005 to 0.05 µM	0.5 to 2 µM
CCc1c(N2CCN(C(=O)c3ncnc(C)c3O)[C@H]3CC[C@@H]32)c(=O)c2nn(C3=CCOCC3)nc2n1CC(=O)Nc1ccc(C(F)(F)F)cc1Cl [Compound I-20, N-(2-chloro-4-(trifluoromethyl)phenyl)-2-(2-(3,6-dihydro-2H-pyran-4-yl)-5-ethyl-6-((1S,6S)-5-(5-hydroxy-6-methylpyrimidine-4-carbonyl)-2,5-diazabicyclo[4.2.0]octan-2-yl)-7-oxo-2,7-dihydro-4H-[1,2,3]triazolo[4,5-b]pyridin-4-yl)acetamide]	≤ 0.005 µM	≤ 0.5 µM
CCc1c(N2CCN(C(=O)c3ncnc(C)c3O)[C@H]3CC[C@@H]32)c(=O)c2nn(-c3ccnc(OC)c3)nc2n1CC(=O)Nc1ccc(C(F)F)cc1F [Compound I-83, N-[4-(difluoromethyl)-2-fluorophenyl]-2-{5-ethyl-6-[(1S,6S)-5-(5-hydroxy-6-methylpyrimidine-4-carbonyl)-2,5-diazabicyclo[4.2.0]octan-2-yl]-2-(2-methoxypyridin-4-yl)-7-oxo-2H,4H,7H-[1,2,3]triazolo[4,5-b]pyridin-4-yl}acetamide]	≤ 0.005 µM	≤ 0.5 µM
CCc1c(N2CCN(C(=O)c3ncnc(C)c3O)CC2)c(=O)c2nn(-c3ccncc3)nc2n1CC(=O)NC12CC(C3CCC3)(C1)C2 [Compound I-141, N-{3-cyclobutylbicyclo[1.1.1]pentan-1-yl}-2-{5-ethyl-6-[4-(5-hydroxy-6-methylpyrimidine-4-carbonyl)piperazin-1-yl]-7-oxo-2-(pyridin-4-yl)-2H,4H,7H-[1,2,3]triazolo[4,5-b]pyridin-4-yl}acetamide]	0.005 to 0.05 µM	0.5 to 2 µM
CCc1c(N2CCN(C(=O)c3c(OC)ccnc3OC)[C@H]3CC[C@@H]32)c(=O)c2nn(C3=CCOCC3)nc2n1CC(=O)NC12CC(C(C)C)(C1)C2 [Compound I-191, 2-[2-(3,6-dihydro-2H-pyran-4-yl)-6-[(1S,6S)-5-(2,4-dimethoxypyridine-3-carbonyl)-2,5-diazabicyclo[4.2.0]octan-2-yl]-5-ethyl-7-oxo-2H,4H,7H-[1,2,3]triazolo[4,5-b]pyridin-4-yl]-N-[3-(propan-2-yl)bicyclo[1.1.1]pentan-1-yl]acetamide]	0.005 to 0.05 µM	≤ 0.5 µM
CCc1c(N2CCN(C(=O)c3c(OC)ncc(C)c3O)CC2)c(=O)c2nn(-c3ccnc(OC)c3)nc2n1CC(=O)NC12CC(C(F)(F)F)(C1)C2 [Compound I-128, 2-{5-ethyl-6-[4-(4-hydroxy-2-methoxy-5-methylpyridine-3-carbonyl)piperazin-1-yl]-2-(2-methoxypyridin-4-yl)-7-oxo-2H,4H,7H-[1,2,3]triazolo[4,5-b]pyridin-4-yl}-N-[3-(trifluoromethyl)bicyclo[1.1.1]pentan-1-yl]acetamide]	0.005 to 0.05 µM	≤ 0.5 µM
